Measurements as given in the NIST ThermoML archive (doi:10.1016/j.jct.2008.02.019).

How the values were obtained:
[1] = 101.33 kPa, Liquid
[2] = refractive index (Na D-line) (dimensionless); conditions: 101.33 kPa, Liquid, Standard Abbe refractometry
[3] = xn = mol fraction of the nth substance listed; conditions: 101 kPa, Liquid
[4] = excess molar enthalpy (molar enthalpy of mixing); xn = mol fraction of the nth substance listed; conditions: 101 kPa, Liquid, Flow calorimetry

CCCC[n+]1ccc(C)cc1.F[B-](F)(F)F [1-butyl-4-methylpyridinium tetrafluoroborate]
Conditions | mass density, [1] [kg/m3] | refractive index, [2]
298.15 K | 1183.49 | 1.4517
318.15 K | 1169.12 | 1.447

CCCC[n+]1ccc(C)cc1.F[B-](F)(F)F [1-butyl-4-methylpyridinium tetrafluoroborate] + CCCCCO
[3], 318.15 K
Conditions | mass density [kg/m3]
x1 = 0.5651 | 1060.4
x1 = 0.6035 | 1072.1
x1 = 0.6715 | 1091.9
x1 = 0.7601 | 1115.3
x1 = 0.8041 | 1126.1
x1 = 0.8616 | 1139.6
x1 = 0.912 | 1150.8

CCCC[n+]1ccc(C)cc1.F[B-](F)(F)F [1-butyl-4-methylpyridinium tetrafluoroborate] + CCCCO
Conditions | excess molar enthalpy [kcal/mol] | mass density [kg/m3]
[3], 298.15 K, x1 = 0.5948 | – | 1094.4
[3], 298.15 K, x1 = 0.692 | – | 1120.2
[3], 298.15 K, x1 = 0.739 | – | 1131.5
[3], 298.15 K, x1 = 0.7851 | – | 1141.8
[3], 298.15 K, x1 = 0.8916 | – | 1163.9
[3], 318.15 K, x1 = 0.0548 | – | 833.2
[3], 318.15 K, x1 = 0.1169 | – | 875.7
[3], 318.15 K, x1 = 0.2301 | – | 940.7
[3], 318.15 K, x1 = 0.3406 | – | 992.1
[3], 318.15 K, x1 = 0.4471 | – | 1033.5
[3], 318.15 K, x1 = 0.564 | – | 1071.4
[3], 318.15 K, x1 = 0.6758 | – | 1102.2
[3], 318.15 K, x1 = 0.7856 | – | 1128.1
[3], 318.15 K, x1 = 0.8427 | – | 1140
[3], 318.15 K, x1 = 0.887 | – | 1148.6
[4], 318.15 K, x1 = 0.0242 | 0.112 | –
[4], 318.16 K, x1 = 0.0613 | 0.226 | –
[4], 318.17 K, x1 = 0.1029 | 0.339 | –
[4], 318.18 K, x1 = 0.1466 | 0.429 | –
[4], 318.19 K, x1 = 0.1938 | 0.527 | –
[4], 318.2 K, x1 = 0.24 | 0.601 | –
[4], 318.21 K, x1 = 0.2864 | 0.654 | –
[4], 318.22 K, x1 = 0.3344 | 0.694 | –
[4], 318.23 K, x1 = 0.3708 | 0.704 | –
[4], 318.24 K, x1 = 0.4149 | 0.707 | –
[4], 318.25 K, x1 = 0.4635 | 0.69 | –
[4], 318.26 K, x1 = 0.5162 | 0.667 | –
[4], 318.27 K, x1 = 0.5729 | 0.623 | –
[4], 318.28 K, x1 = 0.6488 | 0.542 | –
[4], 318.29 K, x1 = 0.7232 | 0.463 | –
[4], 318.3 K, x1 = 0.7962 | 0.361 | –
[4], 318.31 K, x1 = 0.8569 | 0.278 | –
[4], 318.32 K, x1 = 0.9006 | 0.195 | –
[4], 318.33 K, x1 = 0.9435 | 0.129 | –

CCCC[n+]1ccc(C)cc1.F[B-](F)(F)F [1-butyl-4-methylpyridinium tetrafluoroborate] + CCCO
Conditions | excess molar enthalpy [kcal/mol] | mass density [kg/m3]
[3], 298.15 K, x1 = 0.0154 | – | 815.6
[3], 298.15 K, x1 = 0.0271 | – | 827.2
[3], 298.15 K, x1 = 0.2988 | – | 1006.8
[3], 298.15 K, x1 = 0.3987 | – | 1047.4
[3], 298.15 K, x1 = 0.4965 | – | 1079.8
[3], 298.15 K, x1 = 0.5972 | – | 1107.8
[3], 298.15 K, x1 = 0.6889 | – | 1129.1
[3], 298.15 K, x1 = 0.696 | – | 1130.6
[3], 298.15 K, x1 = 0.7812 | – | 1147.9
[3], 298.15 K, x1 = 0.8841 | – | 1165.9
[3], 318.15 K, x1 = 0.0549 | – | 837.6
[3], 318.15 K, x1 = 0.1008 | – | 875.1
[3], 318.15 K, x1 = 0.1969 | – | 939.6
[3], 318.15 K, x1 = 0.3103 | – | 997.6
[3], 318.15 K, x1 = 0.3828 | – | 1027.5
[3], 318.15 K, x1 = 0.4381 | – | 1047.4
[3], 318.15 K, x1 = 0.4534 | – | 1052.4
[3], 318.15 K, x1 = 0.4901 | – | 1064
[3], 318.15 K, x1 = 0.6039 | – | 1095.2
[3], 318.15 K, x1 = 0.6726 | – | 1111.2
[3], 318.15 K, x1 = 0.8248 | – | 1141.4
[3], 318.15 K, x1 = 0.8967 | – | 1156.9
[3], 318.15 K, x1 = 0.9191 | – | 1153.3
[4], 298.15 K, x1 = 0.012 | 0.0315 | –
[4], 298.15 K, x1 = 0.0243 | 0.0516 | –
[4], 298.15 K, x1 = 0.0308 | 0.0719 | –
[4], 298.15 K, x1 = 0.3198 | 0.596 | –
[4], 298.15 K, x1 = 0.3532 | 0.588 | –
[4], 298.15 K, x1 = 0.3908 | 0.579 | –
[4], 298.15 K, x1 = 0.4344 | 0.56 | –
[4], 298.15 K, x1 = 0.4819 | 0.54 | –
[4], 298.15 K, x1 = 0.5374 | 0.505 | –
[4], 298.15 K, x1 = 0.6008 | 0.457 | –
[4], 298.15 K, x1 = 0.6734 | 0.394 | –
[4], 298.15 K, x1 = 0.752 | 0.315 | –
[4], 298.15 K, x1 = 0.8319 | 0.237 | –
[4], 298.15 K, x1 = 0.9181 | 0.138 | –
[4], 318.15 K, x1 = 0.0189 | 0.0927 | –
[4], 318.16 K, x1 = 0.054 | 0.229 | –
[4], 318.17 K, x1 = 0.093 | 0.351 | –
[4], 318.18 K, x1 = 0.1341 | 0.454 | –
[4], 318.19 K, x1 = 0.1775 | 0.543 | –
[4], 318.2 K, x1 = 0.2167 | 0.609 | –
[4], 318.21 K, x1 = 0.2312 | 0.641 | –
[4], 318.22 K, x1 = 0.2581 | 0.67 | –
[4], 318.23 K, x1 = 0.2912 | 0.692 | –
[4], 318.24 K, x1 = 0.331 | 0.708 | –
[4], 318.25 K, x1 = 0.3847 | 0.704 | –
[4], 318.26 K, x1 = 0.4488 | 0.69 | –
[4], 318.27 K, x1 = 0.5249 | 0.65 | –
[4], 318.28 K, x1 = 0.6069 | 0.585 | –
[4], 318.29 K, x1 = 0.6964 | 0.496 | –
[4], 318.3 K, x1 = 0.7815 | 0.405 | –
[4], 318.31 K, x1 = 0.846 | 0.309 | –
[4], 318.32 K, x1 = 0.9043 | 0.197 | –
[4], 318.33 K, x1 = 0.9568 | 0.104 | –
